Assay: MTT cell viability assay, compounds at 5, 1 and 0.2 μM, 48 hours
Format: cell-based
Conditions: human, A549 tumor cells
Method: MTT assay is used to determine cell proliferation, percent of viable cells, and cytotoxicity. MTT (3-[4,5-dimethylthiazol-2-yl]2,5-diphenyltetrazolium bromide) is a yellow dye, which can be absorbed by the living cells and be reduced to purplish blue formazan crystals by succinate tetrazolium reductase in mitochondria. Formazan formation can therefore be used to assess and determine the survival rate of cells.
Tumor cells (A549) were plated at 2500 cells/well of a 96-well plate in complete growth medium (DMEM+10% FBS, antibiotic/antimycotic, fungizone, L-glutamine, sodium pyruvate, and non-essential amino acids). The cells were allowed to grow overnight. After cell proliferation, the cells were washed and re-suspended in fresh culture medium and placed in 96 well plates.
To each of the 96 well plates containing A549 and a control, 5, 1, and 0.2 μM of the exemplary compounds 1-200 were add. The 96 well plates were incubated for 48 hours. Cell viability was measured by adding MTT (Sigma) at 5 mg/ml for 4 h to the cells and then removing the medium and resuspending each well in 50 μl DMSO to solubilize the crystals. The 96-well plates were read on a plate-scanning spectrophotometer (BioTek) at an absorbance of […]. The survival rate of cells was calculated based on the measurement of absorption at the 570 nm wavelength by enzyme immunoassay analyzer.

Compound: Nc1cc(Oc2ccc(-c3nnc(Nc4cccc(C(F)(F)F)c4)[nH]3)cc2)c2ccccc2n1 [Compound 69]
- viability at 48 h, 0.2 µM (0.2 μM): > 70%
- viability at 48 h, 1 µM (1 μM): > 70%
- viability at 48 h, 5 µM (5 μM): > 70%

Compound: CCCNc1cc(Oc2ccc(-c3nnc(Nc4cccc(C(F)(F)F)c4)[nH]3)cc2)nc(SC)n1 [Compound 144]
- viability at 48 h, 0.2 µM (0.2 μM): > 70%
- viability at 48 h, 1 µM (1 μM): > 70%
- viability at 48 h, 5 µM (5 μM): 50 to 70%

Compound: COc1cc(Oc2cccc(-c3nnc(Nc4cccc(C(F)(F)F)c4)[nH]3)c2)ncn1 [Compound 93]
- viability at 48 h, 0.2 µM (0.2 μM): > 70%
- viability at 48 h, 1 µM (1 μM): > 70%
- viability at 48 h, 5 µM (5 μM): 50 to 70%

Compound: COc1ccc2c(Oc3ccc(-c4nnc(Nc5cccc(C(F)(F)F)c5)[nH]4)cc3)ncnc2c1 [Compound 70]
- viability at 48 h, 0.2 µM (0.2 μM): > 70%
- viability at 48 h, 1 µM (1 μM): > 70%
- viability at 48 h, 5 µM (5 μM): < 50%

Compound: Nc1cc(Oc2ccc(-c3nnc(Nc4cccc(C(F)(F)F)c4)[nH]3)cc2)nc(NCCO)n1 [Compound 61]
- viability at 48 h, 0.2 µM (0.2 μM): > 70%
- viability at 48 h, 1 µM (1 μM): > 70%
- viability at 48 h, 5 µM (5 μM): > 70%

Compound: CSc1nc(N)cc(Oc2ccc(Nc3nnc(-c4cccc(C(F)(F)F)c4)[nH]3)cc2)n1 [Compound 176]
- viability at 48 h, 0.2 µM (0.2 μM): > 70%
- viability at 48 h, 1 µM (1 μM): > 70%
- viability at 48 h, 5 µM (5 μM): > 70%

Compound: FC(F)(F)c1cccc(Nc2nnc(-c3ccc(Oc4ccncc4C(F)(F)F)cc3)[nH]2)c1 [Compound 8]
- viability at 48 h, 0.2 µM (0.2 μM): > 70%
- viability at 48 h, 1 µM (1 μM): > 70%
- viability at 48 h, 5 µM (5 μM): 50 to 70%

Compound: CC(C)(C)Sc1cc(Oc2cccc(-c3nnc(Nc4cccc(C(F)(F)F)c4)[nH]3)c2)nc(N)n1 [Compound 151]
- viability at 48 h, 0.2 µM (0.2 μM): > 70%
- viability at 48 h, 1 µM (1 μM): > 70%
- viability at 48 h, 5 µM (5 μM): > 70%

Compound: FC(F)(F)c1cccc(Nc2nnc(-c3cccc(Oc4cc(C(F)(F)F)nc5ccccc45)c3)[nH]2)c1 [Compound 169]
- viability at 48 h, 0.2 µM (0.2 μM): > 70%
- viability at 48 h, 1 µM (1 μM): > 70%
- viability at 48 h, 5 µM (5 μM): > 70%

Compound: Nc1cc(Oc2ccc(-c3nnc(Nc4cccc(C(F)(F)F)c4)[nH]3)cc2)nc(Sc2ccccn2)n1 [Compound 152]
- viability at 48 h, 0.2 µM (0.2 μM): > 70%
- viability at 48 h, 1 µM (1 μM): > 70%
- viability at 48 h, 5 µM (5 μM): > 70%

Compound: CSc1nc(N)cc(Oc2cccc(-c3nnc(Nc4cccc(C(F)(F)F)c4)s3)c2)n1 [Compound 48]
- viability at 48 h, 0.2 µM (0.2 μM): > 70%
- viability at 48 h, 1 µM (1 μM): > 70%
- viability at 48 h, 5 µM (5 μM): > 70%

Compound: Nc1cc(Oc2ccc(-c3nnc(Nc4cccc(C(F)(F)F)c4)[nH]3)cc2)nc(SCC(=O)O)n1 [Compound 116]
- viability at 48 h, 0.2 µM (0.2 μM): > 70%
- viability at 48 h, 1 µM (1 μM): > 70%
- viability at 48 h, 5 µM (5 μM): > 70%

Compound: NS(=O)(=O)c1cnccc1Oc1cccc(-c2nnc(Nc3cccc(C(F)(F)F)c3)o2)c1 [Compound 39]
- viability at 48 h, 0.2 µM (0.2 μM): > 70%
- viability at 48 h, 1 µM (1 μM): > 70%
- viability at 48 h, 5 µM (5 μM): > 70%

Compound: O=[N+]([O-])c1cc(F)cc(Oc2ccc(-c3nnc(Nc4cccc(C(F)(F)F)c4)[nH]3)cc2)c1 [Compound 147]
- viability at 48 h, 0.2 µM (0.2 μM): > 70%
- viability at 48 h, 1 µM (1 μM): > 70%
- viability at 48 h, 5 µM (5 μM): 50 to 70%

Compound: FC(F)(F)c1cccc(Nc2nnc(-c3ccc(Oc4ccncc4)cc3)o2)c1 [Compound 29]
- viability at 48 h, 0.2 µM (0.2 μM): > 70%
- viability at 48 h, 1 µM (1 μM): > 70%
- viability at 48 h, 5 µM (5 μM): 50 to 70%

Compound: CN(C)c1cc(Oc2ccc(-c3nnc(Nc4cccc(C(F)(F)F)c4)[nH]3)cc2)c2ccccc2n1 [Compound 190]
- viability at 48 h, 0.2 µM (0.2 μM): > 70%
- viability at 48 h, 1 µM (1 μM): > 70%
- viability at 48 h, 5 µM (5 μM): 50 to 70%

Compound: CSc1nc(N)cc(Oc2ccc(-c3nnc(Nc4cc(C(F)(F)F)cc(C(F)(F)F)c4)[nH]3)cc2)n1 [Compound 120]
- viability at 48 h, 0.2 µM (0.2 μM): > 70%
- viability at 48 h, 1 µM (1 μM): > 70%
- viability at 48 h, 5 µM (5 μM): > 70%

Compound: Nc1nccc(Oc2cccc(-c3nnc(Nc4cccc(C(F)(F)F)c4)[nH]3)c2)n1 [Compound 15]
- viability at 48 h, 0.2 µM (0.2 μM): > 70%
- viability at 48 h, 1 µM (1 μM): > 70%
- viability at 48 h, 5 µM (5 μM): > 70%

Compound: Oc1ccc(Nc2nnc(-c3cccc(C(F)(F)F)c3)[nH]2)cc1 [Compound 181]
- viability at 48 h, 0.2 µM (0.2 μM): > 70%
- viability at 48 h, 1 µM (1 μM): > 70%
- viability at 48 h, 5 µM (5 μM): > 70%

Compound: NS(=O)(=O)c1cnccc1Oc1cccc(-c2nnc(Nc3cccc(C(F)(F)F)c3)[nH]2)c1 [Compound 19]
- viability at 48 h, 0.2 µM (0.2 μM): > 70%
- viability at 48 h, 1 µM (1 μM): > 70%
- viability at 48 h, 5 µM (5 μM): > 70%

Compound: COc1ccc2c(Oc3cc(-c4nnc(Nc5cccc(C(F)(F)F)c5)[nH]4)ccc3C)ccnc2c1 [Compound 197]
- viability at 48 h, 0.2 µM (0.2 μM compound): > 70%
- viability at 48 h, 1 µM (1 μM compound): > 70%
- viability at 48 h, 5 µM (5 μM compound): > 70%

Compound: FC(F)(F)c1cccc(Nc2nnc(-c3cccc(Oc4ccnc5[nH]ccc45)c3)[nH]2)c1 [Compound 85]
- viability at 48 h, 0.2 µM (0.2 μM): > 70%
- viability at 48 h, 1 µM (1 μM): > 70%
- viability at 48 h, 5 µM (5 μM): 50 to 70%

Source: patent publication US9212151B2, “Heterocyclic compounds useful for kinase inhibition” (Amitech Therapeutic Solutions, Inc., priority 2010, dated 2015)
